# Reference: US6582351B1, “Imidazopyridinone derivatives and their use as phosphodiesterase inhibitors” (Fujisawa Pharmaceutical Co., Ltd., priority 1999, dated 2003)
row,Structure (SMILES),melting point
1,"COc1ccc(Cn2c(=O)n([C@H]3CC[C@H](O)CC3)c3ccc([N+](=O)[O-])cc32)cc1OC [Example 2(3), 3-(3,4-Dimethoxybenzyl)-1-(trans-4-hydroxycyclohexyl)-5-nitro-2,3-dihydro-1H-benzimidazol-2-one]",175 to 176 °C
2,"COc1ccc(Cn2c(=O)n(C(C)(C)C)c3ccc(C(F)(F)F)cc32)cc1Cl [Example 2(32), 1-(tert-Butyl)-3-(3-chloro-4-methoxybenzyl)-5-trifluoromethyl-2,3-dihydro-1H-benzimidazol-2-one]",130.5 to 131.5 °C
3,"COc1ccc(Cn2c(=O)n([C@H]3CC[C@H](O)CC3)c3ccc(C(F)(F)F)cc32)cc1OC [Example 1, 3-(3,4-dimethoxybenzyl)-1-(trans-4-hydroxycyclohexyl)-5-trifluoromethyl-2,3-dihydro-1H-benzimidazol-2-one]",108 to 110 °C
4,"COc1ccc(Cn2c(=O)n([C@H]3CC[C@H](O)CC3)c3ccc(C(C)=O)cc32)cc1Cl [Example 2(22), 5-Acetyl-3-(3-chloro-4-methoxybenzyl)-1-(trans-4-hydroxycyclohexyl)-2,3-dihydro-1H-benzimidazol-2-one]",209 to 210 °C
5,"COc1ccc(Cn2c(=O)n([C@H]3CC[C@H](O)CC3)c3ccc(C(F)(F)F)cc32)cc1F [Example 2(30), 3-(3-Fluoro-4-methoxybenzyl)-1-(trans-4-hydroxycyclohexyl)-5-trifluoromethyl-2,3-dihydro-1H-benzimidazol-2-one]",178 to 179 °C
6,"COc1ccc(Cn2c(=O)n(C3CCOCC3)c3ccc(C(F)(F)F)cc32)cc1Cl [Example 2(34), 3-(3-Chloro-4-methoxybenzyl)-1-(tetrahydro-4H-pyran-4-yl)-5-trifluoromethyl-2,3-dihydro-1H-benzimidazol-2-one]",175 to 176 °C
7,"COc1ccc(Cn2c(=O)n([C@H]3CCN(C(=O)OC(C)(C)C)C3)c3ncc(C(F)(F)F)cc32)cc1Cl [Example 2(103), 3-((S)-1-tert-Butoxycarbonylpyrrolidin-3-yl)-1-(3-chloro-4-methoxybenzyl)-6-trifluoromethyl-2,3-dihydro-1H-imidazo[4,5-b]pyridin-2-one]",87 to 89 °C
8,"COc1ccc(Cn2c(=O)n([C@H]3CC[C@H](O)CC3)c3ccc(C(C)=O)cc32)cc1OC [Example 2(7), 5-Acetyl-3-(3,4-dimethoxybenzyl)-1-(trans-4-hydroxycyclohexyl)-2,3-dihydro-1H-benzimidazol-2-one]",169 to 170 °C
9,"COc1ccc(Cn2c(=O)n([C@H]3CC[C@H](OC(C)=O)CC3)c3ccc([N+](=O)[O-])cc32)cc1OC [Example 22(1), 1-(trans-4-Acetoxycyclohexyl)-3-(3,4-dimethoxybenzyl)-5-nitro-2,3-dihydro-1H-benzimidazol-2-one]",207 to 207.5 °C
10,"COc1ccc(Cn2c(=O)n([C@H]3CC[C@H](O)CC3)c3ccc(C(F)(F)F)cc32)cc1Br [Example 2(31), 3-(3-Bromo-4-methoxybenzyl)-1-(trans-4-hydroxycyclohexyl)-5-trifluoromethyl-2,3-dihydro-1H-benzimidazol-2-one]",182 to 182.5 °C
11,"COc1cc(Cn2c(=O)n(C3CCCC3)c3ccc([N+](=O)[O-])cc32)ccc1Cl [Example 2(2), 3-(4-Chloro-3-methoxybenzyl)-1-cyclopentyl-5-nitro-2,3-dihydro-1H-benzimidazol-2-one]",170 to 171.5 °C
12,"COc1ccc(Cn2c(=O)n([C@H]3CC[C@H](NC=O)CC3)c3ccc(C(F)(F)F)cc32)cc1OC [Example 2(8), 3-(3,4-Dimethoxybenzyl)-1-(trans-4-formamidocyclohexyl)-5-trifluoromethyl-2,3-dihydro-1H-benzimidazol-2-one]",158 to 160.5 °C
13,"COc1ccc(Cn2c(=O)n([C@H]3CC[C@H](OC(C)=O)CC3)c3ncc(C(F)(F)F)cc32)cc1Cl [Example 2(15), 3-(trans-4-Acetoxycyclohexyl)-1-(3-chloro-4-methoxybenzyl)-6-trifluoromethyl-2,3-dihydro-1H-imidazo[4,5-b]pyridin-2-one]",165 to 166 °C
14,"COc1ccc(Cn2c(=O)n([C@H]3CC[C@H](O)CC3)c3ccc(C(F)(F)F)cc32)cc1Cl [Example 2(24), 3-(3-Chloro-4-methoxybenzyl)-1-(trans-4-hydroxycyclohexyl)-5-trifluoromethyl-2,3-dihydro-1H-benzimidazol-2-one]",167 to 168 °C
15,"COc1c(Cl)cc(Cn2c(=O)n([C@H]3CC[C@H](O)CC3)c3ccc([N+](=O)[O-])cc32)cc1Cl [Example 2(26), 3-(3,5-Dichloro-4-methoxybenzyl)-1-(trans-4-hydroxycyclohexyl)-5-nitro-2,3-dihydro-1H-benzimidazol-2-one]",115 to 116 °C
16,"COC(=O)c1ccc2c(c1)n(Cc1ccc(OC)c(Cl)c1)c(=O)n2[C@H]1CC[C@H](O)CC1 [Example 2(27), 3-(3-Chloro-4-methoxybenzyl)-1-(trans-4-hydroxycyclohexyl)-5-methoxycarbonyl-2,3-dihydro-1H-benzimidazol-2-one]",174 to 175 °C

# Results, then the compound that gave them:
row,melting point,Structure (SMILES)
1,262 to 262.5 °C,"COc1ccc(Cn2c(=O)n([C@H]3CC[C@H](O)CC3)c3ncc(C(=O)O)cc32)cc1Cl [Example 19(25), 6-Carboxy-1-(3-chloro-4-methoxybenzyl)-3-(trans-4-hydroxycyclohexyl)-2,3-dihydro-1H-imidazo[4,5-b]pyridin-2-one]"
2,122 to 124 °C,"CCCCn1c(=O)n(Cc2ccc(OC)c(Cl)c2)c2cc(C(F)(F)F)ccc21 [Example 2(36), 1-Butyl-3-(3-chloro-4-methoxybenzyl)-5-trifluoromethyl-2,3-dihydro-1H-benzimidazol-2-one]"
3,164 to 165.5 °C,"COc1ccc(Cn2c(=O)n([C@H]3CC[C@H](NC(N)=O)CC3)c3ccc(C(F)(F)F)cc32)cc1Cl [Example 14(2), 1-(trans-4-Ureidocyclohexyl)-3-(3-chloro-4-methoxybenzyl)-5-trifluoromethyl-2,3-dihydro-1H-benzimidazol-2-one]"
4,163 to 166 °C,"COc1ccc(Cn2c(=O)n(-c3ccc4nc[nH]c4c3)c3ncc(C#N)cc32)cc1Cl [Example 2(104), 3-(Benzimidazol-5-yl)-1-(3-chloro-4-methoxybenzyl)-6-cyano-2,3-dihydro-1H-imidazo[4,5-b]pyridin-2-one]"
5,291.5 to 292 °C,"COc1ccc(Cn2c(=O)n([C@H]3CC[C@H](O)CC3)c3ccc(C(N)=O)cc32)cc1Cl [Example 20, 5-carbamoyl-3-(3-chloro-4-methoxybenzyl)-1-(trans-4-hydroxycyclohexyl)-2,3-dihydro-1H-benzimidazol-2-one]"
6,160.5 to 162 °C,"COc1ccc(Cn2c(=O)n([C@H]3CC[C@H](O)CC3)c3ccc(C(=O)c4ccccc4)cc32)cc1Cl [Example 4(6), 5-Benzoyl-3-(3-chloro-4-methoxybenzyl)-1-(trans-4-hydroxycyclohexyl)-2,3-dihydro-1H-benzimidazol-2-one]"
7,121 to 123 °C,"COc1ccc(Cn2c(=O)n([C@H]3CC[C@H](O)CC3)c3ncc(C(F)(F)F)cc32)cc1Cl [Example 19(2), 1-(3-Chloro-4-methoxybenzyl)-3-(trans-4-hydroxycyclohexyl)-6-trifluoromethyl-2,3-dihydro-1H-imidazo[4,5-b]pyridin-2-one]"
8,128 to 130 °C,"COc1ccc(Cn2c(=O)n([C@H]3CC[C@H](O)CC3)c3ncc(C(F)(F)F)cc32)cc1OC [Example 18, 1-(3,4-dimethoxybenzyl)-3-(trans-4-hydroxycyclohexyl)-6-trifluoromethyl-2,3-dihydro-1H-imidazo[4,5-b]pyridin-2-one]"
9,160 to 161 °C,"COc1ccc(Cn2c(=O)n(C3CCCCC3)c3ccc(C(F)(F)F)cc32)cc1Cl [Example 2(37), 1-Cyclohexyl-3-(3-chloro-4-methoxybenzyl)-5-trifluoromethyl-2,3-dihydro-1H-benzimidazol-2-one]"
10,114 to 116 °C,"COc1ccc(Cn2c(=O)n([C@H]3CC[C@H](O)CC3)c3ncc(C#N)cc32)cc1Br [Example 2(100), 1-(3-Bromo-4-methoxybenzyl)-6-cyano-3-(trans-4-hydroxycyclohexyl)-2,3-dihydro-1H-imidazo[4,5-b]pyridin-2-one]"
11,168 to 169 °C,"COc1ccc(Cn2c(=O)n([C@H]3CC[C@H](O)CC3)c3ncc(C#N)cc32)cc1C [Example 2(101), 6-Cyano-3-(trans-4-hydroxycyclohexyl)-1-(4-methoxy-3-methylbenzyl)-2,3-dihydro-1H-imidazo[4,5-b]pyridin-2-one]"
12,108 to 109 °C,"COc1ccc(Cn2c(=O)n([C@H](C)CO)c3ccc(C(F)(F)F)cc32)cc1Cl [Example 4(4), 3-(3-Chloro-4-methoxybenzyl)-1-((R)-2-hydroxy-1-methylethyl)-5-trifluoromethyl-2,3-dihydro-1H-benzimidazol-2-one]"
13,146 to 148 °C,"COC(=O)c1cnc2c(c1)n(Cc1ccc(OC)c(Cl)c1)c(=O)n2[C@H]1CC[C@H](O)CC1 [Example 2(98), 1-(3-Chloro-4-methoxybenzyl)-3-(trans-4-hydroxycyclohexyl)-6-methoxycarbonyl-2,3-dihydro-1H-imidazo[4,5-b]pyridin-2-one]"
14,265 to 265.5 °C,"COc1ccc(Cn2c(=O)n([C@H]3CC[C@H](O)CC3)c3ccc(S(C)(=O)=O)cc32)cc1Cl [Example 4(3), 3-(3-Chloro-4-methoxybenzyl)-1-(trans-4-hydroxycyclohexyl)-5-methylsulfonyl-2,3-dihydro-1H-benzimidazol-2-one]"
15,195 to 197 °C,"COc1ccc(Cn2c(=O)n(C(C)(C)CO)c3ncc(C(F)(F)F)cc32)cc1Cl [Example 3, 1-(3-chloro-4-methoxybenzyl)-3-(1,1-dimethyl-2-hydroxyethyl)-6-trifluoromethyl-2,3-dihydro-1H-imidazo[4,5-b]pyridin-2-one]"
16,164 to 165 °C,"COc1ccc(Cn2c(=O)n([C@H](C)CO)c3ncc(C#N)cc32)cc1Cl [Example 4(8), 1-(3-Chloro-4-methoxybenzyl)-6-cyano-3-((R)-2-hydroxy-1-methylethyl)-2,3-dihydro-1H-imidazo[4,5-b]pyridin-2-one]"
